Data from the supplement of paper PMC12406974.

Columns and labels:
Assay in all cases: maximum observed lethal fraction; higher = more cell death
U2OS PTBP1-KO = tested on: U2OS PTBP1-KO
U2OS = tested on: U2OS
U2OS BAX/BAK1 DKO = tested on: U2OS BAX/BAK1 DKO
U2OS BCL2L12-KO = tested on: U2OS BCL2L12-KO
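Further: FLICK assay: SYTOX Green fluorescence of dead cells tracked over time after drugging in 96-well plates, with total cell counts taken from Triton X-100 lysed wells.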

| SMILES | maximum observed lethal fraction (U2OS PTBP1-KO; 0.0316 µM) | maximum observed lethal fraction (U2OS PTBP1-KO; 0.1 µM) | maximum observed lethal fraction (U2OS PTBP1-KO; 0.316 µM) | maximum observed lethal fraction (U2OS PTBP1-KO; 1 µM) | maximum observed lethal fraction (U2OS PTBP1-KO; 3.16 µM) | maximum observed lethal fraction (U2OS PTBP1-KO; 10 µM) | maximum observed lethal fraction (U2OS PTBP1-KO; 31.6 µM) | maximum observed lethal fraction (U2OS; 0.0316 µM) | maximum observed lethal fraction (U2OS; 0.1 µM) | maximum observed lethal fraction (U2OS; 0.316 µM) | maximum observed lethal fraction (U2OS; 1 µM) | maximum observed lethal fraction (U2OS; 3.16 µM) | maximum observed lethal fraction (U2OS; 10 µM) | maximum observed lethal fraction (U2OS; 31.6 µM) | maximum observed lethal fraction (U2OS BAX/BAK1 DKO; 0.0316 µM) | maximum observed lethal fraction (U2OS BAX/BAK1 DKO; 0.1 µM) | maximum observed lethal fraction (U2OS BAX/BAK1 DKO; 0.316 µM) | maximum observed lethal fraction (U2OS BAX/BAK1 DKO; 1 µM) | maximum observed lethal fraction (U2OS BAX/BAK1 DKO; 3.16 µM) | maximum observed lethal fraction (U2OS BAX/BAK1 DKO; 10 µM) | maximum observed lethal fraction (U2OS BAX/BAK1 DKO; 31.6 µM) | maximum observed lethal fraction (U2OS BCL2L12-KO; 0.0316 µM) | maximum observed lethal fraction (U2OS BCL2L12-KO; 0.1 µM) | maximum observed lethal fraction (U2OS BCL2L12-KO; 0.316 µM) | maximum observed lethal fraction (U2OS BCL2L12-KO; 1 µM) | maximum observed lethal fraction (U2OS BCL2L12-KO; 3.16 µM) | maximum observed lethal fraction (U2OS BCL2L12-KO; 10 µM) | maximum observed lethal fraction (U2OS BCL2L12-KO; 31.6 µM) | maximum observed lethal fraction (U2OS PTBP1-KO; 0.01 µM) | maximum observed lethal fraction (U2OS; 0.01 µM) | maximum observed lethal fraction (U2OS BAX/BAK1 DKO; 0.01 µM) | maximum observed lethal fraction (U2OS BCL2L12-KO; 0.01 µM) | maximum observed lethal fraction (U2OS PTBP1-KO; 100 µM) | maximum observed lethal fraction (U2OS PTBP1-KO; 316 µM) | maximum observed lethal fraction (U2OS; 100 µM) | maximum observed lethal fraction (U2OS; 316 µM) | maximum observed lethal fraction (U2OS BAX/BAK1 DKO; 100 µM) | maximum observed lethal fraction (U2OS BAX/BAK1 DKO; 316 µM) | maximum observed lethal fraction (U2OS BCL2L12-KO; 100 µM) | maximum observed lethal fraction (U2OS BCL2L12-KO; 316 µM) |
| --- | --- | --- | --- | --- | --- | --- | --- | --- | --- | --- | --- | --- | --- | --- | --- | --- | --- | --- | --- | --- | --- | --- | --- | --- | --- | --- | --- | --- | --- | --- | --- | --- | --- | --- | --- | --- | --- | --- | --- | --- |
| C[C@H]1CCC/C=C/[C@@H]2C[C@H](O)C[C@H]2[C@H](O)/C=C/C(=O)O1 [Brefeldin A] | 0.168 | 0.257 | 0.333 | 0.321 | 0.29 | 0.411 | 0.389 | 0.0868 | 0.38 | 0.634 | 0.701 | 0.762 | 0.775 | 0.818 | 0.0711 | 0.075 | 0.0688 | 0.0708 | 0.0703 | 0.0786 | 0.0716 | 0.218 | 0.387 | 0.628 | 0.709 | 0.77 | 0.793 | 0.86 | – | – | – | – | – | – | – | – | – | – | – | – |
| Nc1cc(C(F)(F)F)c(-c2cc(N3CCOCC3)nc(N3CCOCC3)n2)cn1 [Buparlisib] | 0.0937 | 0.0916 | 0.0993 | 0.125 | 0.231 | 0.304 | 0.326 | 0.0663 | 0.0713 | 0.0748 | 0.109 | 0.275 | 0.463 | 0.513 | 0.0655 | 0.0661 | 0.0716 | 0.091 | 0.0979 | 0.11 | 0.116 | 0.0818 | 0.0866 | 0.0955 | 0.176 | 0.287 | 0.349 | 0.374 | – | – | – | – | – | – | – | – | – | – | – | – |
| CC[C@@]1(O)C(=O)OCc2c1cc1n(c2=O)Cc2cc3ccccc3nc2-1 [Camptothecin] | 0.0841 | 0.0812 | 0.0849 | 0.107 | 0.295 | 0.328 | – | 0.0661 | 0.0732 | 0.0916 | 0.379 | 0.625 | 0.786 | – | 0.0659 | 0.0708 | 0.0816 | 0.0795 | 0.0879 | 0.0915 | – | 0.083 | 0.0852 | 0.101 | 0.307 | 0.664 | 0.8 | – | 0.0712 | 0.0607 | 0.0607 | 0.0758 | – | – | – | – | – | – | – | – |
| NC1(C(=O)N[C@@H](CCO)c2ccc(Cl)cc2)CCN(c2nc[nH]c3nccc2-3)CC1 [Capivasertib] | 0.0937 | 0.0911 | 0.0962 | 0.0997 | 0.111 | 0.132 | 0.22 | 0.0687 | 0.066 | 0.0671 | 0.0702 | 0.0868 | 0.109 | 0.201 | 0.0665 | 0.0661 | 0.0653 | 0.0697 | 0.074 | 0.078 | 0.0858 | 0.0788 | 0.0816 | 0.0788 | 0.0844 | 0.0929 | 0.108 | 0.236 | – | – | – | – | – | – | – | – | – | – | – | – |
| O=C(O)C1(C(=O)O)CCC1.[NH2-].[NH2-].[Pt+2] [Carboplatin] | – | – | 0.0634 | 0.0611 | 0.0647 | 0.0661 | 0.0674 | – | – | 0.0493 | 0.052 | 0.0533 | 0.0546 | 0.056 | – | – | 0.0602 | 0.0593 | 0.0612 | 0.0614 | 0.0671 | – | – | 0.0652 | 0.0616 | 0.0672 | 0.0691 | 0.0714 | – | – | – | – | 0.0762 | 0.54 | 0.0693 | 0.517 | 0.0722 | 0.0825 | 0.0762 | 0.342 |
| Nc1ncnc2c1ncn2[C@@H]1O[C@H](CO)C[C@H]1O [Cordycepin] | – | 0.068 | 0.0684 | 0.0659 | 0.0646 | 0.0665 | 0.0847 | – | 0.0524 | 0.0543 | 0.0522 | 0.0545 | 0.054 | 0.0774 | – | 0.0507 | 0.0537 | 0.0531 | 0.0551 | 0.0542 | 0.0698 | – | 0.0657 | 0.0642 | 0.064 | 0.068 | 0.0693 | 0.0825 | – | – | – | – | 0.517 | – | 0.451 | – | 0.072 | – | 0.616 | – |
| C#C[C@@]1(O)[C@@H](CO)O[C@@H](n2ccc(N)nc2=O)[C@@H]1O [Ethynylcytidine] | 0.0709 | 0.0864 | 0.0904 | 0.101 | 0.329 | 0.244 | – | 0.0612 | 0.071 | 0.0947 | 0.523 | 0.868 | 0.787 | – | 0.059 | 0.0745 | 0.0801 | 0.0819 | 0.0878 | 0.0906 | – | 0.0771 | 0.0843 | 0.0999 | 0.323 | 0.706 | 0.715 | – | 0.0691 | 0.0536 | 0.0536 | 0.068 | – | – | – | – | – | – | – | – |
| COc1cc([C@@H]2c3cc4c(cc3[C@@H](O[C@@H]3O[C@@H]5CO[C@@H](C)O[C@H]5[C@H](O)[C@H]3O)[C@H]3COC(=O)[C@H]23)OCO4)cc(OC)c1O [Etoposide] | 0.0736 | 0.0782 | 0.0848 | 0.0897 | 0.0981 | 0.384 | 0.649 | 0.0568 | 0.0636 | 0.0687 | 0.0712 | 0.0784 | 0.31 | 0.601 | 0.055 | 0.0596 | 0.0706 | 0.0746 | 0.0695 | 0.0871 | 0.0793 | 0.0627 | 0.0728 | 0.083 | 0.0936 | 0.0967 | 0.341 | 0.629 | – | – | – | – | – | – | – | – | – | – | – | – |
